# Test results reported in ChEMBL document CHEMBL5365520, “Unlocking DCAFs To Catalyze Degrader Development: An Arena for Innovative Approaches” (J Med Chem, 2023).
# Key:
# [1] = target: von Hippel-Lindau disease tumor suppressor/Bromodomain-containing protein 4 (Homo sapiens, UniProt O60885+P40337); assay: PROTAC activity at VHL/BRD4 in human LNCaP cells assessed as reduction in protein degradation measured after 6 hrs by Western blot analysis; type: cell-based
# [2] = target: DNA damage-binding protein 1 (Homo sapiens, UniProt Q16531); assay: Binding affinity to N-terminal His6-tagged human DDB1 expressed in baculovirus infected Hi-5 insect cells assessed as dissociation constant by SPR analysis
# [3] = target: T1, DDB1- and CUL4-associated factor 16/Bromodomain-containing protein 4 (Homo sapiens, UniProt O60885+Q9NXF7); assay: PROTAC activity at DCAF16/BRD4 in human PC-3 cells assessed as maximal degradation relative to control; type: cell-based
# [4] = target: T1, DDB1- and CUL4-associated factor 16/Bromodomain-containing protein 4; assay: PROTAC activity at DCAF16/BRD4 in human PC-3 cells assessed as reduction in protein degradation; type: cell-based
# [5] = target: DCAF11-BRD4 (Homo sapiens) (UniProt O60885+Q8TEB1); assay: PROTAC activity at DCAF11/BRD4 in HEK293T cells assessed as reduction of protein degradation at 1 uM measured after 24 hrs relative to control; type: cell-based; parameters: scale not given: the % may be the effect or the level left
# [6] = Binding affinity to biotinylated human DDA1/DDB1 (398 to 701 residues)/N-terminal His-ZZ-3C-tagged DCAF15/RBM39 RRM2 domain expressed in baculovirus infected Sf21 cells immobilized on SA chip assessed as dissociation constant by SPR analysis
# [7] = Binding affinity to biotinylated human DDA1/DDB1 (398 to 701 residues)/N-terminal His-ZZ-3C-tagged DCAF15 expressed in baculovirus infected Sf21 cells immobilized on SA chip assessed as dissociation constant by SPR analysis
# DCAF1-BRD9 = DCAF1-BRD9 (Homo sapiens, UniProt Q9H8M2+Q9Y4B6); assay: PROTAC activity at DCAF1/BRD9 in HEK293T cells co expressing HiBit/FF/CAS9 assessed as reduction of protein degradation measured after 6 hrs by immunoblotting analysis; type: cell-based
# Sequence of DCAF1-BRD9 (Q9H8M2 whole entry): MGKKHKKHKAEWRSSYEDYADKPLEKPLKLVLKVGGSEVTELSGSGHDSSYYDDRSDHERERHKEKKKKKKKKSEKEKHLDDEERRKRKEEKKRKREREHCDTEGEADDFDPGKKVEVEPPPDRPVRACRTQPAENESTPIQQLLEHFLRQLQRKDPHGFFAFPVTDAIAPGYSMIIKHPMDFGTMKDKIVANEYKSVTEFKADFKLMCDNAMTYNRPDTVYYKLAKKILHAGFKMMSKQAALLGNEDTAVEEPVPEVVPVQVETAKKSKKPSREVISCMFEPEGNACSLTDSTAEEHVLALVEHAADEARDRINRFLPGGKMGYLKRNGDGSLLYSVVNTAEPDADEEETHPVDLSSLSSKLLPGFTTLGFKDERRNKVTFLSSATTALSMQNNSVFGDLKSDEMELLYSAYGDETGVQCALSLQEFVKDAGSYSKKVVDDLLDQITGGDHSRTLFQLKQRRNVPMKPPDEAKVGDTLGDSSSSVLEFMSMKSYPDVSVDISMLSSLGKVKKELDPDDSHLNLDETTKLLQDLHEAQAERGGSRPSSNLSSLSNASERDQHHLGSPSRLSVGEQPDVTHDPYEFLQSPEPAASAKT
# Sequence of DCAF1-BRD9 (Q9Y4B6 whole entry): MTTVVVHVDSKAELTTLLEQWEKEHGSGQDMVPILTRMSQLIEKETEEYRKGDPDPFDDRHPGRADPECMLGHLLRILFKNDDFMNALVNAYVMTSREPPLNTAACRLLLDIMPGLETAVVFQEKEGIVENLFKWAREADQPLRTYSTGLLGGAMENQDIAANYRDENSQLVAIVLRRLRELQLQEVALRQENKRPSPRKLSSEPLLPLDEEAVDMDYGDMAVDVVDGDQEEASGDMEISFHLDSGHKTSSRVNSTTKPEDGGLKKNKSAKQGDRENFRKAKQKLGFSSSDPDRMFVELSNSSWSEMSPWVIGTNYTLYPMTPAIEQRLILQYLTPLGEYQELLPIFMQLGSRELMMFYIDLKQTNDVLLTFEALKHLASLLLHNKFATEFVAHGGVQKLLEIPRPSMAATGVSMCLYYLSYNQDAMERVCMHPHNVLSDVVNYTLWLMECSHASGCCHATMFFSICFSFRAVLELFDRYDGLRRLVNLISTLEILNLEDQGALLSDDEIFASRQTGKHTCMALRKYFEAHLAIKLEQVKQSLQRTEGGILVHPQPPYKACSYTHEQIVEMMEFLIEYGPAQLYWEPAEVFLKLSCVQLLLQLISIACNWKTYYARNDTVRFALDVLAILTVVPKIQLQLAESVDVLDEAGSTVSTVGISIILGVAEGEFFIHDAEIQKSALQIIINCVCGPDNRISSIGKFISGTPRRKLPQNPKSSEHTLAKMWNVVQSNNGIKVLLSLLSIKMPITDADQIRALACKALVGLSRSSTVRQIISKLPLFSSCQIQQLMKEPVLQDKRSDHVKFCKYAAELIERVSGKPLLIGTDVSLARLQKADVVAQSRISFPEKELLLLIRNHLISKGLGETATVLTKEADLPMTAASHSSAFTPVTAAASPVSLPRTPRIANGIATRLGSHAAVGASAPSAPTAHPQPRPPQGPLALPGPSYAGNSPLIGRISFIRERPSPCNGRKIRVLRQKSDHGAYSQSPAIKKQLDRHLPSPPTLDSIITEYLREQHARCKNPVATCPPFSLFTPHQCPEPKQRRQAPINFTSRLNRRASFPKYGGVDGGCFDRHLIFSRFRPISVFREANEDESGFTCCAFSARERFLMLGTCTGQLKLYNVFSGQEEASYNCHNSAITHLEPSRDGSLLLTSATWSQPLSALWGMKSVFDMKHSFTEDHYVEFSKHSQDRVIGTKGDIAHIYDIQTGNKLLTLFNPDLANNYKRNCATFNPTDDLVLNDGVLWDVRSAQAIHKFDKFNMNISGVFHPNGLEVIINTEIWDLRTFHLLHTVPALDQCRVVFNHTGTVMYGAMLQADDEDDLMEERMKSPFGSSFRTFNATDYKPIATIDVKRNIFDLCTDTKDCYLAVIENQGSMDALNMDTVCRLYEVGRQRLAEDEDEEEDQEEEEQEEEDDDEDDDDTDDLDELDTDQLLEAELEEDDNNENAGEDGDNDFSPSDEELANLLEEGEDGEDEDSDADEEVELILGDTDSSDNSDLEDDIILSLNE
# T1 sequence (Q9NXF7 whole entry, looked up, other chains not shown): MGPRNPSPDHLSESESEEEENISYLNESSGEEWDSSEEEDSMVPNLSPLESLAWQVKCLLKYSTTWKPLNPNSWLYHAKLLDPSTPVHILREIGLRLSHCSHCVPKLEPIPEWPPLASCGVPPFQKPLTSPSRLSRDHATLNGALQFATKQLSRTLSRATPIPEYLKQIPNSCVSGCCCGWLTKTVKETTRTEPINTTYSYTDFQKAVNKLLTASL
# Sequence of DNA damage-binding protein 1 (Q16531 whole entry): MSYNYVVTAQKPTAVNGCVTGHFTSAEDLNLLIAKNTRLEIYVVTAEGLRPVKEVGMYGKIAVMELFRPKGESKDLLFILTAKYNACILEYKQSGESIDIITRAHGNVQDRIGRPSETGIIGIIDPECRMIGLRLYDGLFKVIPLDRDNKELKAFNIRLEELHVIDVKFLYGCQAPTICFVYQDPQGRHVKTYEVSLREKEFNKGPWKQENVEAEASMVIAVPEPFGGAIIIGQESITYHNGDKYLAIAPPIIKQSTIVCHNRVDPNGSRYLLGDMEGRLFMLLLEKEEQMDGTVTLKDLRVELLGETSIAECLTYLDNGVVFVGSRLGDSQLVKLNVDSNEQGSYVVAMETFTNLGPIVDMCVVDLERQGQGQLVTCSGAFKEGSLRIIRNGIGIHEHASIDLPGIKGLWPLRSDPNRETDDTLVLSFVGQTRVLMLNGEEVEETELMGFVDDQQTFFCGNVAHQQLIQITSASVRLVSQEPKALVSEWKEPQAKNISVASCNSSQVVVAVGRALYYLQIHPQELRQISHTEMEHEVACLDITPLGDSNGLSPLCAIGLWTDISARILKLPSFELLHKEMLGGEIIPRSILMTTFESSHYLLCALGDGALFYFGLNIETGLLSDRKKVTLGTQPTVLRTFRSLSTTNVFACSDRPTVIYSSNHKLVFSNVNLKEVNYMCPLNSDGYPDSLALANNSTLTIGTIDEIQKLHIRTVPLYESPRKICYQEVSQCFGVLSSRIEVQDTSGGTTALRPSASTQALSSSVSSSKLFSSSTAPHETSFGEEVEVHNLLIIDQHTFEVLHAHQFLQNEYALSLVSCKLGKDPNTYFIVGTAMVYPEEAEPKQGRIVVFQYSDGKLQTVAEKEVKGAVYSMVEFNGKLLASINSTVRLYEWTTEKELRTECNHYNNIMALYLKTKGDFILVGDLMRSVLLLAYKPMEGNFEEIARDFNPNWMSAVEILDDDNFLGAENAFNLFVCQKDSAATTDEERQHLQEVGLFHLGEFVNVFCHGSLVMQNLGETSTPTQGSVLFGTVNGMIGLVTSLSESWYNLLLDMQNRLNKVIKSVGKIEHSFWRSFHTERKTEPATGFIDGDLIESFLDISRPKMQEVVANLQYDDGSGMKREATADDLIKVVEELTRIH
# Sequence of DCAF11-BRD4 (Homo sapiens) (Q8TEB1 whole entry, looked up, other chains not shown, the tested form may be a part): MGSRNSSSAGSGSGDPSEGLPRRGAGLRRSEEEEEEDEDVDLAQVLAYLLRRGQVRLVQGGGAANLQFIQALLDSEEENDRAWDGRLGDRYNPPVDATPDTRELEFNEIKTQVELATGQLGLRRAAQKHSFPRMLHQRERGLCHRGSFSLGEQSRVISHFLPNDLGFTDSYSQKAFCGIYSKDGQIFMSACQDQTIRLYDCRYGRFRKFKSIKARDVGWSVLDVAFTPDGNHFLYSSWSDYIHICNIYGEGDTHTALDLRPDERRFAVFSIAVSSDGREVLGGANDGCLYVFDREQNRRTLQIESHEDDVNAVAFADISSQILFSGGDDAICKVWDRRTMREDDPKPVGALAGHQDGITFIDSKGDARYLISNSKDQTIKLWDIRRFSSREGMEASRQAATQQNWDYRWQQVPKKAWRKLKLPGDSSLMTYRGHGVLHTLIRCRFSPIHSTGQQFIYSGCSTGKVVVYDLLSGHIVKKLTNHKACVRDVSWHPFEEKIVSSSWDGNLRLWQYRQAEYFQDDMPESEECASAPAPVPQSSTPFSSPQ
# Sequence of von Hippel-Lindau disease tumor suppressor/Bromodomain-containing protein 4 (P40337 whole entry, looked up, other chains not shown): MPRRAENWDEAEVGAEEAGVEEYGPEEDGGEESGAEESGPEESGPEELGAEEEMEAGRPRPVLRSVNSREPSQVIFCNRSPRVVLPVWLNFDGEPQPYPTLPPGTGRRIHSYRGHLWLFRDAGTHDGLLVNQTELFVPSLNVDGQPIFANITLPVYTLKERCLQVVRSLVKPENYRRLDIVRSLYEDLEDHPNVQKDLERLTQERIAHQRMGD
smiles,measurement,setting,value
Cc1sc2c(c1C)C(c1ccc(-c3ccc(C(=O)NCc4ccc(S(=O)(=O)Nc5ccc(C)c6c(C#N)c[nH]c56)cc4)cc3)cc1)=N[C@@H](CC(=O)OC(C)(C)C)c1nnc(C)n1-2,EC50,[1],0.15 nM
Cc1cc(NCCOCCOCCOCCOCCOCCN)ccc1C(=O)Nc1nc(C)c(C)s1,Kd,[2],< 20000 nM
Cc1sc2c(c1C)C(c1ccc(C#CCN)cc1)=N[C@@H](CC(=O)OC(C)(C)C)c1nnc(C)n1-2,Emax,[3],84%
same,DC50,[4],1.4 nM
Cc1sc2c(c1C)C(c1ccc(-c3cccc(NC(=O)c4cn5ccccc5n4)c3)cc1)=N[C@@H](CC(N)=O)c1nnc(C)n1-2,Activity,[5],95%
NS(=O)(=O)c1ccc(S(=O)(=O)Nc2cccc3c(Cl)c[nH]c23)cc1 [INDISULAM],Kd,[6],135 nM
same,Kd,[7],> 50000 nM
COc1cc(-c2cncc3c(=O)n(C)ccc23)c(OC)cc1CN1CCC(OCCCCCC(=O)N2CCN(c3ccc4c(NCCN)nc(C5(c6ccc(Cl)cc6)CCCCC5)nc4c3)CC2)CC1,EC50,DCAF1-BRD9,~500 nM
